{
  "source": "patent US20180160709A1",
  "about": "“bitter taste removing preparation and method” (priority 2016, published 2018)",
  "assay": "In vitro membrane dialysis: bonding between bitter ingredients and proteins",
  "format": "binding",
  "settings": "among whey protein, milk powder, chicken ovalbumin, bovine serum albumin",
  "protocol": "The possible hydrophobic bonding between bitter ingredients RO and protein molecules can be explored by using membrane dialysis:\nDialysis bag was purchased from Beijing Scientan science and technology company, molecular weight range 8-14 KD. The bag was immersed in 10 mL water in a beaker. The pore size on the membrane inhibited the protein molecules from penetrating.\nInto the first group (control samples) bags added in the sophora flavescens, gentian, and scutellaria decoctions and Berberine in aqueous solution respectively, 0.2 mL each, and diluted with water to 2 mL total volume each. To simulate the Chinese medicine, in the 4 medicine decoctions used as sample and control sample, there was no additive and without any post processing.\nIn the second group of 4×5 bags, four different protein powders were added respectively: whey protein, milk powder, chicken ovalbumin, bovine serum albumin, 5 bags for each protein, 400 mg powder in each bag. As the last step of sample preparation, 2 mL of 1/10 diluted decoction solutions were added into the protein bags, 4 different protein bags for each medicine decoction to add in. Into the remaining set of 4 different protein bags from above, 2 ml water was added instead without any medicine decoction. […]\nScheduled sampling from the 10 mL water outside the bag, and followed by HPLC quantitative analysis. […]",
  "data": [
    {"substance": "bovine serum albumin: protein powder, 400 mg per dialysis bag", "values": [
      {"measurement": "encapsulation or hydrophobic bonding ability", "value": "strongest"}
    ]}
  ]
}
